≈ marks a conversion by molar mass, not a printed value.
What was measured:
[1] = system: MatTek's MelanoDerm skin epidermal equivalent tissues (MEL-300-B; NHEK and NHM); assay: Skin Epidermal Equivalents Model as a Skin Lightening Test (ΔL); format: cell-based, human; conditions: topical daily 8 days, measured day 9
From the text: Skin epidermal equivalent tissues are available commercially from MatTek's MelanoDerm™ System and were used for the following tests. MatTek's MelanoDerm™ System consists of normal, human-derived epidermal keratinocytes (NHEK) and melanocytes (NHM) which have been cultured to form a multilayered, highly differentiated model of the human epidermis. Specifically, MEL-300-B tissues, each 9 mm in diameter were used in the following tests.
The test materials prepared in an appropriate vehicle and tested concentrations were applied topically to the skin model daily and the experiment lasted for 8 days. Measurement was taken on day 9.
The macroscopic and microscopic visual tissue darkening end points were measured by taking pictures with a digital camera. The Degree of Lightness for each tissue (L-Value) was measured using a spectrophotometer (Konica Minolta CM-2600d). The ΔL (degree of lightness as compared to control) for each test sample is calculated as per following formula:
ΔL=L-value of treated sample−L-value of control sample.

[2] = system: skin epidermal tissues (MelanoDerm); assay: Cell Viability Test (MTT) on skin epidermal tissues; format: cell-based, human; conditions: at tested concentrations; ≧30% reduction of cell viability = significant
Experimental: Cell Viability of the tissue during experiment was evaluated using the MTT assay described as follows. The MTT Tissue Viability Assay is a colorimetric assay system that measures the reduction of a yellow Methylthiazolyldiphenyl-tetrazolium bromide (MTT) into an insoluble purple product by the mitochondria of viable cells. The skin epidermal tissues used previously to determine degree of lightness for each test material and of untreated tissues were used to determine percent viable cells remaining at the end of the experiment. The skin epidermal tissues after degree of lightness test were incubated with MTT reagent for 3 h. After incubation extraction buffer is added to lyse the cells and allowed to continue overnight. Samples are read using a plate reader at a wavelength of 570 nm and compared against untreated control and expressed in % Cell Viability as of control. A reduction of ≧30% cell viability as of control consider as a significant indication of cell cytotoxicity caused by the test materials. The amount of purple color produced is directly proportional to the number of viable cells.
Cytotoxicity potential was determined by MTT assay for all extracts and calculated as % reduction of cell viability as compared to control, wherein >30% reduction of cell viability constitute significant cytotoxicity issues.

[3] = system: NF-κB promoter activity in H9c2 cells; assay: NF-κB Inhibition Assay (NF-κB promoter luciferase, TNFα stimulated); format: cell-based; conditions: Rattus norvegicus
Experimental: The NF-κB promoter assay is conducted as follows: rat cardiac myoblasts H9c2 cells were purchased from ATCC (Manassas, Va.). Cultures were maintained in Dulbecco's modified Eagle's medium (DMEM, Invitrogen Life Technologies, Carlsbad, Calif.) supplemented with 10% fetal bovine serum, 100 units/ml penicillin, and 50 μg/ml streptomycin (Invitrogen life technologies, Carlsbad, Calif.). Typically, 1×10^4 cells grown in 96-well plates were transiently transfected with 0.45 μg total DNA per well using Lipofectamine 2000 (Invitrogen life technologies, Carlsbad, Calif.). In all transfections, a construct with the thymidine kinase promoter and the Renilla luciferase reporter gene (pRL-TK, Promega, Madison, Wis.) was included as an internal control in addition to the luciferase promoter. One day after transfection, cells were treated with the extracts at indicated concentrations and stimulated with 100 ng/mL of Tumor Necrosis Factor-a (TNFα, Sigma-Aldrich, St Louis, Mo.) for approximately 24 hours before they were lysed for luciferase assays, using Dual-Luciferase Reporter System from Promega (Madison, Wis.), following manufacturer's protocol. Briefly, the firefly luciferase activity was measured first (representing NF-κB promoter activity), followed by the renilla luciferase (internal control), using luminometer LMAX, from Molecular Devices (Sunnyvale, Calif.). […]

IC50 [3]: 148 µg/mL (≈ 400 µM)
Structure (SMILES): OC12COC(c3ccc4c(c3)OCO4)C1COC2c1ccc2c(c1)OCO2 (centres unmarked) [Paulownin]
Degree of Lightness (ΔL) ([1]; Conc. 0.5%): 0.69 | Degree of Lightness (ΔL) ([1]; Conc. 1%): 1.52 | Degree of Lightness (ΔL) ([1]; Conc. 2%): 2.79 | Cytotoxicity potential by MTT assay [2]: did not show any significant cytotoxicity
